The record followed here is patent publication US9611314B2, “Functional peptide analogs of PEDF” (The Penn State Research Foundation, priority 2013, dated 2017).

Data set [1] can be described thus: Peptide bioavailability in mouse vitreous after 5 μg eye drop (MALDI TOF). It counts as in vivo, C57BL/6 mice. The settings on record: compared to P78 and SpxA1. The procedure:
Before the longitudinal efficacy studies were carried out in vivo, the bioavailability of the five analogs was examined in comparison to the parent compound P78 and its active 29-mer derivative, SpxA1.
Bioavailability of each peptide was determined in vitreous samples obtained at various time points after eye drops were given. Vitreous samples were harvested from enucleated eyes and immediately analyzed by mass spectrometry. Spectral intensities were compared to spectra of known concentrations of each analog to calculate amounts of peptides reaching the vitreous. The eye drops administered to normal mouse eyes contained 5 μg of the test compound. Bioavailability was studied at three time points: 1, 4, 6 hr using four animals/time point (n=8 eyes). The vitreous was rapidly dissected from each group after the drops were given and immediately analyzed by MALDI TOF.

The next data set deals with VEGFA. The experiment in a line: VEGFA secretion by RPE cells, Luminex. The data set is classed as cell-based, human. The conditions noted are these: for effect in reducing VEGFA levels compared to P78: 25 nM peptide, serum starvation. As for the experimental part: (§1) The analogs were tested for their efficacy in reducing levels of TNFα, IFNγ, VEGF-A and increasing cell viability in in vitro assays. Efficacy was compared to both non-treated oxidative stressed controls and the control standard P78.
(§2) Briefly, to test efficacy of the compounds in preventing cell death, experiments were performed to screen for the ability of each analog to: 1) increase cellular bioenergetic levels in an ATP assay and 2) reduce cell death in an LDH assay. To test the action of each analog on inflammatory processes, Luminex bead arrays were used to examine the ability of each analog to decrease production of inflammatory cytokines. To test for the potential of each analog to reduce vascular leakage, qPCR was used to examine the ability of each analog to increase mRNA levels of ZO1 and occludin, two junction proteins essential to vascular integrity. To test peptide stability in the vitreous, the analogs were incubated with dissected vitreous humor and the samples were analyzed at various time points using Maldi-TOF. These tests allowed for the systematic selection of analogs having the least toxicity and the strongest potential to reduce pathology in vivo.
Experiments were designed to assess the effects of each peptide compared to P78 on the inflammatory and vascular permeability/angiogenesis cytokines TNFα, IFNγ, and VEGFA. Briefly, human retinal RPE cells were grown to ˜75% confluency in 10% serum containing medium. The cells were then exposed to serum starvation in the presence or absence (control) of 25 nM of each peptide including the prototype P78 and the active fragment of P78, SpxA1. The supernatant from each treatment was tested for effects on the secretion of TNFα, IFNγ, and VEGFA. The data represent the percent change to the control samples and p values are given for each peptide in relationship to the P78 treatment (FIGS. 3A through 3B).

The next data set has as its system RPE cultures. The data set is described as follows: In vitro tests of inflammation, angiogenesis and cell viability, summarised together. The settings on record: assays other than VEGFA. It counts as cell-based, human. The procedure: as §1
The analogs disclosed in Table 1 were assayed for improved stability and efficacy in in vitro assays for inflammation, angiogenesis, and cell death, which are the three leading pathological features of diabetic retinopathy.
as §2, with “These tests allowed for the systematic selection of analogs having the least toxicity and the strongest potential to reduce pathology in vivo.” left out

For the next data set, the system named is human ARPE19 cells. The experiment in a line: Cell viability by ATP levels (CellTiter-Glo), serum starvation or H2O2. The conditions noted are these: for ATP viability tests: selection for in vivo studies: serum starvation and 300 uM H2O2, 25 nM peptide, 48 hr. The data set is classed as cell-based. As for the experimental part:
as §1, §2
The effects of the peptides to increase cell viability by increasing levels of ATP were tested in two models of cell death: (i) serum starvation; (ii) oxidative stress caused by hydrogen peroxide toxicity (300 uM). With respect to serum starvation, human ARPE19 cells were grown to ˜85% confluency in 10% serum containing medium after which the cells were placed in serum-free medium for 48 hr in the presence or absence (control) of 25 nM of each peptide. For ATP assay, CellTiter-Glo® reagents were used and luminescence was determined after 12 min spectrophotometrically (n=4) (FIG. 2A). With respect to oxidative stress, human ARPE19 cells were grown to ˜85% confluency in 10% serum containing medium. The cells were then treated with 300 uM H2O2 for 48 hours in the presence or absence (control) of 25 nM of each peptide. Levels of ATP were measured and % luminescence to controls and P78 was quantitated (n=4). Changes to ATP levels are plotted against control values and p values are given to P78 (FIG. 2B).
For orientation: ATP-based viability assays read luminescence as a measure of living cells.

In another data set the test system is ZO1 and occludin. The data set is described as follows: qPCR of tight junction mRNA (potential to reduce vascular leakage). The conditions noted are these: compared to P78 and SpxA1. The data set is classed as cell-based. As for the experimental part:
as §2
To test for the potential of each peptide (81-2, 81-5, 81-12, 81-13 and 81-20) to reduce vascular leakage, qPCR was used to examine the ability of each analog to increase mRNA levels of Z01, a junction protein essential to vascular integrity (FIG. 4A).
A general note: Quantitative PCR measures a nucleic acid by following its amplification.

In a further data set the test system is HUVEC. The data set is described as follows: VEGF-mediated HUVEC tube formation on human dermal fibroblasts. The data set is classed as cell-based. The settings on record: 100 nM peptide, 4 ng/ml VEGF, 12 days; compared to VEGF. The procedure:
Human dermal fibroblasts were cultured at 1×10^5/well in IncuCyte seeding medium (Essen Bioscience) in 96 wells plates for 1 hr. Medium was removed and replaced with complete IncuCyte growth medium (Essen Bioscience). Human umbilical vein endothelial cells (HUVEC) containing a green fluorescent marker (HUVEC CytoLight green) cells at 2000 cells/well were/well to attached dermal fibroblasts cultures and placed in the IncuCyte Zoom fluorescent and phase contrast multiplex imaging incubator (Essen BioScience). Twenty four hours later 4 ng/ml VEGF was added to all wells and 100 nM/ml PEDF peptides added to test wells. Cultures containing VEGF alone were used as positive controls and those containing 100 μM Suramin (VEGF inhibitor) used as negative controls. The cultures were placed at 37° C. in the Incucyte Zoom and HUVEC tube length networks measured over a 12 day incubation period using the Incucyte CellPlayer Angiogenesis software module and interface systems. Media was refreshed every 3-4 days.

A short description of a further data set: in vivo. More on the design: species or system rodents. The settings on record: topical or ocular, 2 ug. The procedure: In addition, bioavailability studies of the peptides in rodent eyes were conducted and the results were compared to the control standard P78 peptide. For example, the peptides were tested in bioavailability studies in rodents at 1, 2, 4, 8 hrs (n=4 each peptide/time pt). The animals were given a single eye drop containing 2 μg of each peptide. At each time point the animals were sacrificed, vitreous harvested, and bioavailability assessed by Maldi TOF.

For the next data set, the system named is VEGF. The experiment in a line: Vitreous VEGF after 15 wks eye drops (Luminex). It counts as in vivo, Ins2Akita mouse. The settings on record: 5 μg eye drop 2×/wk for 15 wks, relative to diabetic controls. The procedure: From the in vitro P78 peptide analog screening studies, five structurally diverse analogs with best biological activity were selected to test their efficacy in the diabetic mouse eye. In vivo effects of these peptides were tested in the Ins2Akita mouse model of DR, a well-characterized DR model that has a mutation in the insulin gene. Heterozygote Ins2Akita mice (Jackson Lab) become hyperglycemic (HG) at ˜4.5 wks of age. RGC death and inflammation occur within the first 4-6 wks of DR and vascular pathology is first noticed ˜13 wks after the onset of diabetes. The studies were designed to identify peptide candidates with pleotrophic effects on cell death, inflammation, and vascular leakage in the diabetic retina.
Male hyperglycemic mice with blood glucose levels >300 mg/dL were used and treatments carried as previously described for P78 (Liu et al., 2012, Mol. Med., 18(1): 1387-1401). Diabetic mice were treated 2×/wk for 15 wks at the onset of HG using a single dose of 5 μg/5 μl artificial tears for each drug, a dose at which P78 is effective. Both eyes received the same treatment to avoid drug cross contamination between the eyes of an individual animal. […]
Levels of VEGF were also quantitated in the vitreous of the 15 wks peptide treated and control groups using the Luminex bead technology. […]

The test system of another data set is TNFα. The data set is described as follows: TNFα secretion by RPE cells, Luminex. It counts as cell-based, human. As for the experimental part: as §1, §2
(§3) Experiments were designed to assess the effects of each peptide compared to P78 on the inflammatory and vascular permeability/angiogenesis cytokines TNFα, IFNγ, and VEGFA. […]

The subject of another data set is IFNγ. The experiment in a line: IFNγ secretion by RPE cells, Luminex. It counts as cell-based, human. As for the experimental part: as §1, §2, §3
The mark [2] stands for this setting: change versus control standard P78.
[3] abbreviates: change versus non-treated stressed control (C).

Where a SMILES comes first, the peptide text is derived from it. Where no end group is shown, it is not given here. [ ]: non-standard residue; d: D form. The star is where a group is joined. 1Nal = N[C@@H](Cc1cccc2ccccc12)C(=O)O; AEEA = NCCOCCOCC(=O)O; Butyryl = CCCC(=O)*

In the case of `CCCC(=O)N[C@@H](CO)C(=O)N[C@@H](C)C(=O)N[C@H](C(=O)N[C@@H](CO)C(=O)N[C@H](C(=O)NCC(=O)N[C@@H](C)C(=O)N[C@@H](CC(=O)O)C(=O)N[C@@H](C)C(=O)N[C@@H](CCCNC(=N)N)C(=O)N[C@H](C(=O)N[C@@H](C)C(=O)N[C@@H](CO)C(=O)N[C@H](C(=O)N[C@H](C(=O)N[C@@H](Cc1c[nH]cn1)C(=O)N[C@@H](CCCNC(=N)N)C(=O)NCCOCCOCC(=O)O)[C@@H](C)CC)[C@@H](C)CC)[C@@H](C)O)[C@@H](C)CC)[C@@H](C)CC` [Peptide 81-5, {BA*}SAISIGADARTASIIHR{PEG*}] (Butyryl-SAISIGADARTASIIHR[AEEA]-OH), the “stability profile in the vitreous after 6 hr” value in data set [1] is “best stability profile”.

On to FGADERTESIIHR [Peptide 81-19], for which, in the data set on VEGFA, the “effect in reducing VEGFA levels compared to P78” value was “significantly better effects in reducing VEGFA levels”. Further, the “effect on the other assays compared to P78” value in the data set on RPE cultures is “less effective than P78”.

On to “L-1-NALGADERTESIIHR ([1Nal]GADERTESIIHR) [Peptide 81-20]”, for which the “ATP viability tests: selection for in vivo studies” value in the data set on human ARPE19 cells was “good candidates for the in vivo studies”. Also, the “ZO1 mRNA expression” value in the data set with ZO1 and occludin was “higher expression of ZO1 compared to P78 and SpxA1”. The “inhibition of HUVEC tube formation” value in the data set on HUVEC was “prevented tube formation compared to VEGF but less effective”.

Take “SAISIGADARTASIIHR [Peptide 81-3, SAISIGADARTASIIHR]”: the level at 4 h in the data set “in vivo” stood at 2280 ng/mL.

Consider “SAISIGADERTESIIHR [Peptide 81-2, SAISIGADERTESIIHR]”, for which, in the data set “in vivo”, the level at 4 h came to 2000 ng/mL.

In turn, “SALSLGADERTESIIHR [Peptide 81-1, SALSLGADERTESIIHR]” registered a level at 4 h in “in vivo” of 1800 ng/mL.

With “VLLSPLSVATALSAISIGADARTASIIHR [Peptide 81-10]”, the “effect in reducing VEGFA levels compared to P78” value with VEGFA was “significantly better effects in reducing VEGFA levels”. Also, the “effect on the other assays compared to P78” value in the data set on RPE cultures is reported as “less effective than P78”.

With VLLSPLSVATALSALSLGADERTESIIHR [SpxA1], the level at 4 h in “in vivo” was found to be 920 ng/mL.

“VLLSPLSVATALSALSLGADERTESIIHRALYYDLISSPDIHGT [Peptide P-78, reference compound]”: the level at 4 h in the data set “in vivo” came out at 1200 ng/mL.

As to “{BA*}NFGYDLYRVRSSMSPTTNSALSLGADERTESIIHR{PEG*} (not fully specified (N-terminus, C-terminus); printed as {BA*}NFGYDLYRVRSSMSPTTNSALSLGADERTESIIHR{PEG*}) [Peptide 81-12, P60 + 81-1, butyric acid at N-terminus, PEGylated at C-terminus]”, the “ATP viability tests: selection for in vivo studies” value in the data set with human ARPE19 cells is “good candidates for the in vivo studies”. The “ZO1 mRNA expression” value with ZO1 and occludin is “higher expression of ZO1 compared to P78 and SpxA1”. Further, the “VEGF levels in the vitreous” value in the data set with VEGF was “slightly but significantly more effective”. Besides, the “inhibition of HUVEC tube formation” value in the data set on HUVEC is given as “prevented tube formation compared to VEGF but less effective”.

For “{BA*}VLLSPLSVATALSAISIGADARTASIIHR{PEG*} (VLLSPLSVATALSAISIGADARTASIIHR[AEEA]; not fully specified (N-terminus); printed as {BA*}VLLSPLSVATALSAISIGADARTASIIHR{PEG*}) [Peptide 81-4, butyric acid on N-terminus, PEG2-CH2COOH at C-terminus]”, the “*TNFα % to P78” value in the data set on TNFα (setting [2]) is reported as −8%. For the same compound, in the data set on TNFα (setting [3]), the “*TNFα % to C” value is given as −2%. Moreover, the “*IFNγ % to P78” value in the data set on IFNγ (setting [2]) is on record as −11%. Further, the “*IFNγ % to C” value in the data set with IFNγ (setting [3]) is recorded as −15%. In the data set with VEGFA (setting [2]), the “*VEGF % to P78” value is given as −0%. Moreover, in the data set with VEGFA (setting [3]), the “*VEGF % to C” value is −11%. The “*ATP % to P78” value with human ARPE19 cells (setting [2]) is 9%. Moreover, the “*ATP % to C” value with human ARPE19 cells (setting [3]) is given as “+7%”.
